Source: patent US9730905B2, “Monounsaturated fatty acid for preventing and/or treating skin complexion imperfections” (L'OREAL, priority 2010, dated 2017)

System: skin tissue
Test: Inventors' demonstration of the effect of monounsaturated fatty acids on skin tissue and complexion
Conditions: in vivo

CCCCCCCCCCC/C=C\CCCCC(=O)O [petroselinic acid]
restoration of normal skin tissue / complexion: lead to a restoration of normal skin tissue in perfect homeostasis
